In US9873694B2, “Imidazole quinoline-based immune system modulators” (Janus Biotherapeutics, Inc., priority 2011, dated 2018):

Experiments:
[1] = target: T1, human TLR9 (hTLR9) (Homo sapiens, UniProt Q9NR96); assay: TLR9 antagonist assay (HEK-Blue-hTLR9 cells, NF-kB/AP-1 driven SEAP reporter, ODN 2006 agonist); type: cell-based; settings: 1 hour compound pre-incubation, then hTLR9 agonist (such as ODN 2006, 1 uM) overnight, SEAP read at 620 nm, 4 parameter Hill fit, read-out: hTLR9 antagonism IC50
T1 construct: host or cells: HEK293 (HEK-Blue-hTLR9)
T1 sequence (Q9NR96 26-1032): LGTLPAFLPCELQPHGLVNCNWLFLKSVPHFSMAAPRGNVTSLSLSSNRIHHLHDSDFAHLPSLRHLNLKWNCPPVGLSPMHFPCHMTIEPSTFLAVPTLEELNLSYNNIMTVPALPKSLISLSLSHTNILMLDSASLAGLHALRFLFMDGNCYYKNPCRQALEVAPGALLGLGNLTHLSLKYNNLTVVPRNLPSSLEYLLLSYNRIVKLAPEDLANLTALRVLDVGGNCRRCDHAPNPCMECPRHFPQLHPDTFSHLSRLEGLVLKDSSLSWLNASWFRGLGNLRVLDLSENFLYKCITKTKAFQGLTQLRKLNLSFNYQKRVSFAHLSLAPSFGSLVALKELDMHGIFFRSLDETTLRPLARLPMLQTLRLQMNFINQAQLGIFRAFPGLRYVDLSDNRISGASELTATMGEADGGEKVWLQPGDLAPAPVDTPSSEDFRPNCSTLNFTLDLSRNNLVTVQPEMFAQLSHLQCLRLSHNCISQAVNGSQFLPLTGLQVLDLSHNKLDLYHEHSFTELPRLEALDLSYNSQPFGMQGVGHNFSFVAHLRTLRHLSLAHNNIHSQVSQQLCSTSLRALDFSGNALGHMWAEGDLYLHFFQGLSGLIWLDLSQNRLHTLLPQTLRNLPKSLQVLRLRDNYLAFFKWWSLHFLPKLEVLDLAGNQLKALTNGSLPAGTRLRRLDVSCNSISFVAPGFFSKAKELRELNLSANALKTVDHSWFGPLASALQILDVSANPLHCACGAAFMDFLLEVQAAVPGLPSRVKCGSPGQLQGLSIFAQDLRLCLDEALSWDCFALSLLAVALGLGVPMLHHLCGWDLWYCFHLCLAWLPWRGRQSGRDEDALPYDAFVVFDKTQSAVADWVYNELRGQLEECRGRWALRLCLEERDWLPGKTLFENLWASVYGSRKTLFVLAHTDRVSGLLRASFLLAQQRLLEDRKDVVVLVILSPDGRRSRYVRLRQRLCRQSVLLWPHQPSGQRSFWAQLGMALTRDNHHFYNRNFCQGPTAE
Text: HEK-Blue™-hTLR9 cells were obtained from InvivoGen Inc. and used to determine test compound antagonism of human TLR9 (hTLR9) driven responses. HEK-Blue™-hTLR9 cells are designed for studying the stimulation of human TLR9 by monitoring the activation of NF-kB. As described by the manufacturer, “HEK-Blue™-hTLR9 cells were obtained by co-transfection of the hTLR9 gene and an optimized secreted embryonic alkaline phosphatase (SEAP) reporter gene into HEK293 cells. The SEAP reporter gene is placed under the control of the IFN-b minimal promoter fused to five NF-kB and AP-1 binding sites. Stimulation with a TLR9 ligand activates NF-kB and AP-1 which induces the production of SEAP. Levels of SEAP can be easily determined with QUANTI-Blue™ a detection medium that turns purple/blue in the presence of alkaline phosphatase”.
A cell suspension of HEK-Blue™-hTLR9 cells at ˜450,000 cells per ml in test medium which contained 5% (v/v) heat inactivated FBS was prepared. 180 ul of cell suspension (˜80,000 cells) was added per well of a flat-bottom 96-well plate and place in an incubator at 37° C. for overnight.
Test compounds were serially diluted in test medium, generally starting at 10 uM, and diluting by 3 fold in a 96 well master plate. 20 ul of diluted test compound was transferred using a 12 channel multi-channel pipet to the cell plate and incubated at 37° C. for 1 hour. Then 20 ul of an hTLR9 agonist (such as ODN 2006, 1 uM) was added to each well and the plate incubated at 37° C. overnight.
Invivogen's QUANTI-Blue™ was prepared following the manufacturer's instructions. […] of resuspended QUANTI-Blue™ was added per well of a flat bottom 96-well plate. 20 ul per well of induced HEK-Blue™-hTLR9 cells supernatant was then added to the plate and the plate was incubated at 37° C. for 1-3 h. SEAP levels were determined using a spectrophotometer at 620 nm.
The concentration dependent inhibition of hTLR9 dependent SEAP production was expressed as the concentration of compound which produced half the maximal level of SEAP induced by the hTLR agonist alone. Percent activity was calculated for each observation using the formula: % activity=((observed O.D.−background O.D.)/(agonist only O.D.−background O.D.))*100. The 50% inhibitory concentration (IC50) (Table 3) was calculated by using a 4 parameter Hill plot sigmoidal curve fit where the inflection point of the sigmoidal curve is defined as the point of 50% activity.

[2] = target: T2, TLR9 (Mus musculus, UniProt Q9EQU3); assay: In vivo TLR antagonism: serum IL-12 after CpG ODN 1668 TLR9 agonist injection, single intraperitoneal dose to male C57Bl/6 mice; parameters: species or system C57Bl/6J mouse; settings: male C57Bl/6J mice; test article i.p. at T=0 hr; CpG ODN 1668 i.p. at T=1 hr; serum IL-12 ELISA at T=4 hr; doses 400 ug to 10 ug
T2 construct: Male C57Bl/6J mice, at ˜8 weeks of age from Jackson Laboratories were used; tissue Jackson Laboratories; host or cells: whole animal, male C57Bl/6J mouse
T2 sequence (Q9EQU3 26-1032): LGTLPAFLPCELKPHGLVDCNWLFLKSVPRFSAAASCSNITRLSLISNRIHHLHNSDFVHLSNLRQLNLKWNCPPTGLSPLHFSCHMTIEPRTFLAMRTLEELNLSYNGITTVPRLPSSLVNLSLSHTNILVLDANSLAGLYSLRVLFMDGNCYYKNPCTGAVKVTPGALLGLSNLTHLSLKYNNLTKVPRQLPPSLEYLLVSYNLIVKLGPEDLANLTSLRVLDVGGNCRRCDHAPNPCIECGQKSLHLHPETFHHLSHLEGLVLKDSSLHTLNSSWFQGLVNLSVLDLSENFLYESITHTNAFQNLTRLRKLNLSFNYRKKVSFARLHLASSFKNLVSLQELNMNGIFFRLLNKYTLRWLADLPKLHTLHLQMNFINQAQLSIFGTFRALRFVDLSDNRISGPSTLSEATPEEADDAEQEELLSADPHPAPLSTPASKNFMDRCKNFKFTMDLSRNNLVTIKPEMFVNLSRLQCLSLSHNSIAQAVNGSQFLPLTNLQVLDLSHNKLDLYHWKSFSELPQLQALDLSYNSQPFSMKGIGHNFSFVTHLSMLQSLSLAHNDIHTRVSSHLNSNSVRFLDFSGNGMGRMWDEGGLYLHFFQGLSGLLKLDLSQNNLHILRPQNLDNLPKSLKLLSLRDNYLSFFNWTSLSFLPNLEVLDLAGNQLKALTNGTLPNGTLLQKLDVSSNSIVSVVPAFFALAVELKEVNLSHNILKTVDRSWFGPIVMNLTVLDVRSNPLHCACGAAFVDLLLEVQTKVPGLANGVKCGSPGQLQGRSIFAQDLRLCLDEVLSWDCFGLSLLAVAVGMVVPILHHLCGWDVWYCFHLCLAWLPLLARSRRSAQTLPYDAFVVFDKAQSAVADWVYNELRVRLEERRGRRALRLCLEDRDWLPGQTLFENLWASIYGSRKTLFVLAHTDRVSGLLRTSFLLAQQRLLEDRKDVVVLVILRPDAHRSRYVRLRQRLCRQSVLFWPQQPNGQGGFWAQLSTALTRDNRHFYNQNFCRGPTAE
Description: The Effects of test articles on Toll-Like Receptor (TLR) Knockdown Following a Single Intraperitoneal Dose to Male C57Bl/6 Mice.
Toll-Like Receptor (TLR) knockdown effect of test articles was evaluated in a C57Bl/6J mouse. Primary end points included a terminal blood collection for analysis of cytokine production in response to CpG-DNA TLR9 agonist injection. Male C57Bl/6J mice, at ˜8 weeks of age from Jackson Laboratories were used. Test groups were 3 mice per treatment group and the groups were administered test article in a series of descending doses within the range of 400 ug to 10 ug. Test article treatment was dosed at T=0 hr by intraperitoneal injection. Agonist (CpG ODN 1668) treatment was dosed one hour later, T=1 hr by intraperitoneal injection. Necropsy was performed 3 hours post agonist treatment, T=4 hr. Blood samples were collected into serum separator tubes, allowed to clot at room temperature for at least 20 minutes, centrifuged at ambient temperature at 3000 g for 10 minutes, and the serum was extracted. ELISA was performed to determine murine IL-12 levels following manufacture's protocol (BioLegend Inc.). Serum IL-12 levels were calculated and plotted versus administered dose of antagonist and inhibitory dose at 50% (ID50) was determined.

Row | SMILES | IC50 [1] [µM] | In vivo TLR antagonism ID50 (inhibitory dose at 50% of serum IL-12) [2] [µg]
1 | CCOCc1nc2c(N3CCN(C)CC3)nc3ccccc3c2n1CCOCCO [Compound 64] | 6.69 | 
2 | CCOCc1nc2c(N(C)CCN(C)C)nc3ccccc3c2n1CCN1CCOCC1 [Compound 60] | 3.41 | 
3 | CCOCc1nc2c(N(C)CCN(C)C)nc3ccccc3c2n1CCOCCO [Compound 63] | 3.35 | 
4 | CCOCc1nc2c(N(C)CCN(C)C)nc3ccccc3c2n1CCN1CCN(C)CC1 [Compound 65] | 0.056 | 67
5 | CN(C)CCN(C)c1nc2ccccc2c2c1nc(O)n2CCN(C)C [Compound 68] | 0.136 | 280
6 | CCOCc1nc2c(N3CCN(C)CC3)nc3ccccc3c2n1CCN(C)C [Compound 62] | 0.713 | 
7 | CN(C)CCN(C)c1nc2ccccc2c2c1nc(O)n2CCc1c[nH]cn1 [Compound 69] | 1.65 | 
8 | CCOCc1nc2c(N(C)CCN(C)C)nc3ccccc3c2n1CCN(C)C [Compound 61] | 0.389 | 
9 | CN(C)CCN(C)c1nc2ccccc2c2c1ncn2CCN(C)C [Compound 67] | 0.143 | 1262
10 | CCOCc1nc2c(N3CCN(C)CC3)nc3ccccc3c2n1CCN1CCN(C)CC1 [Compound 66] | 0.323 | 
